Assay results from patent US4742069A, “Sulfonamide containing dihydropyridine derivatives, intermediates and medicinal use” (Hoffmann-La Roche Inc., priority 1984, dated 1988).

Assays:
[1] = test system: KCl contracture of coronary artery strips of dogs (tension-dependent calcium channel); assay: Coronary artery strips of dogs, relaxation of KCl contracture; type: cell-based, dog; conditions: Canis lupus familiaris; KCl 84.7 mM, 37° C.; read-out: B: IC50 (half-maximum relaxation of KCl contracture)
Protocol: B. Coronary artery strips of dogs:
In this experiment spiral strips (2-2.5 mm wide and 10 mm long) of coronary arteries of dogs are cut and hung up in an organ chamber under an initial tension of 1.5 g. These strips are pre-incubated for a duration of about 1 to 2 hours in Krebs-Henseleit buffer solution which is gassed with Oxycarbon (a mixture of 95% oxygen and 5% carbon dioxide) at 37° C. The relaxing activity of one of these substances is subsequently tested on a KCl (84.7 mM) contracture by the addition of increasing concentrations of the test substance to the organ chamber. The calcium channel-blocking activity of the test substances can therefore be established, as the KCl contracture occurs exclusively by means of calcium flow through the tension-dependent calcium channel.
The activity of a test substance in this test is given by the IC50 value. This value is defined as the substance concentration (in mol/l) which produces a half-maximum relaxation of a KCl contracture. This value is also extrapolated from the resulting concentration-activity curve.

narcotized dog = assay: Hemodynamic parameters in the narcotized dog; type: in vivo
Excerpt: C. Hemodynamic parameters in the narcotized dog:
The 4 most important measurement parameters (with respective measurement units) of the hemodynamic experiment are: (1) CBF: Coronary Blood Flow (in ml/min)--the velocity of blood flow through the coronary arteries; (2) HR: heart rate (in beats/min)--the heart frequency; (3) BP: blood pressure (in mm Hg); and (4) dp/dt: rate of increase in left ventricular pressure (in mm Hg/sec) as a measurement of the contractility force of the heart. The values are given as the % maximum variation from the initial value (Δ%) and the duration in minutes of this variation (t) per dosage administered.
There is thus obtained not only an overall picture of the activity of the substance, but also an estimation as to the potential selectivity for a specific part of the circulatory system in the entire organism. After the administration of an anesthetic, the dog is intubated and respired artificially. Blood pH, pCO2, pO2 and hemoglobin are measured hourly with a blood-gas analyzer. The blood pressure (systolic and diastolic) is measured with a probe in the aorta abdominalis. The heart frequency is recorded by means of a tachometer, which is disengaged from the pressure pulse. For the other measurements the heart must first be opened in order that a probe can be inserted in the left ventricle (heart chamber) for the pressure measurements (dp/dt). The coronary blood flow is measured with a flowing probe in the left coronary artery (descendens).
This allows the prediction that they are useful as agents in the control or prevention of angina pectoris, ischemia, high blood pressure and migraine.

[2] = molecular target: ^3 H-nifedipine (or ^3 H-nitrendipine) binding, rabbit or guinea pig heart membranes; assay: 3H-Nifedipine binding determinations; conditions: for A: % max. inhib. (maximum inhibition of specific binding): reference compound nifedipine established as 100%
Protocol: A. ^3 H-Nifedipine binding determinations:
The determination is carried out on homogenates or on partially-cleaned membranes of rabbit or guinea pig heart. The reaction mixture (0.3 ml) consists of 0.2-0.8 mg of membrane protein, 1 nM of ^3 H-nifedipine (or 0.25 nM of ^3 H-nitrendipine) and various concentrations of the test substances. The incubation lasts 30 minutes at 25° C. or 37° C. and is stopped by dilution with the incubation buffer; a filtration is subsequently carried out. The filter-bound radioactivity is measured with a scintillation counter. Specific binding (i.e. receptor-bound) is defined as the difference between total and unspecific-bound radioactivity. The unspecific binding is determined in the presence of an excess of non-radioactive nifedipine (1 μM).
The activity (potency) of a compound in this test is defined by the IC50 and % maximum inhibition values (% max. inhibition). The IC50 is the substance concentration (in mol/l) which produces a half-maximum inhibition of the specific ^3 H-nifedipine (or ^3 H-nitrendipine) binding. In the table compound A has an IC50 in mol/l, of 3.0.10^-8 which means 3.0×10^-8. The maximum inhibition of the specific binding is given by the % maximum inhibition value; this value is established as 100% for the reference compound nifedipine. Both parameters are extrapolated from a concentration-binding curve.

Structure (SMILES)	IC50 [1] [nM]	BP blood pressure, duration of variation (t) (narcotized dog; 0.03 mg/kg p.o.) [min]	BP blood pressure, maximum variation from initial value (Δ%) (narcotized dog; 0.03 mg/kg p.o.) [%]	CBF coronary blood flow, duration of variation (t) (narcotized dog; 0.03 mg/kg p.o.) [min]	CBF coronary blood flow, maximum variation from initial value (Δ%) (narcotized dog; 0.03 mg/kg p.o.) [%]	HR heart rate, duration of variation (t) (narcotized dog; 0.03 mg/kg p.o.) [min]	HR heart rate, maximum variation from initial value (Δ%) (narcotized dog; 0.03 mg/kg p.o.) [%]	dp/dt rate of increase in left ventricular pressure, maximum variation from initial value (Δ%) (narcotized dog; 0.03 mg/kg p.o.) [%]	dp/dt, duration of variation (t) (narcotized dog; 0.03 mg/kg p.o.) [min]	IC50 ([2]; read-out: IC50 (half-maximum inhibition of specific 3H-nifedipine binding), as repeated in the text) [nM]	A: % max. inhib. (maximum inhibition of specific binding) [2] [%]	BP blood pressure, duration of variation (t) (narcotized dog; 0.1 mg/kg p.o.) [min]	BP blood pressure, maximum variation from initial value (Δ%) (narcotized dog; 0.1 mg/kg p.o.) [%]	CBF coronary blood flow, duration of variation (t) (narcotized dog; 0.1 mg/kg p.o.) [min]	CBF coronary blood flow, maximum variation from initial value (Δ%) (narcotized dog; 0.1 mg/kg p.o.) [%]	HR heart rate, duration of variation (t) (narcotized dog; 0.1 mg/kg p.o.) [min]	HR heart rate, maximum variation from initial value (Δ%) (narcotized dog; 0.1 mg/kg p.o.)	dp/dt rate of increase in left ventricular pressure, maximum variation from initial value (Δ%) (narcotized dog; 0.1 mg/kg p.o.) [%]	dp/dt, duration of variation (t) (narcotized dog; 0.1 mg/kg p.o.) [min]
CCNS(=O)(=O)CC(=O)C1=C(C)NC(C)=C(C(=O)OC(C)C)C1c1cccc([N+](=O)[O-])c1 (centres unmarked) [A, 5-[(Ethylsulfamoyl)acetyl]-1,4-dihydro-2,6-dimethyl-4-(3-nitrophenyl)nicotinic acid isopropyl ester]	6.8	> 60	-13	90	98	60	-11	37	90	30	100	–	–	–	–	–	–	–	–
CNS(=O)(=O)CC(=O)C1=C(C)NC(C)=C(C(=O)OC(C)C)C1c1cccc([N+](=O)[O-])c1 (centres unmarked) [B, 1,4-dihydro-2,6-dimethyl-5-[(methylsulfamoyl)acetyl]-4-(3-nitrophenyl)nicotinic acid isopropyl ester]	16	> 90	-8	> 90	120	–	0	10	> 90	–	94	–	–	–	–	–	–	–	–
CNS(=O)(=O)CC(=O)C1=C(C)NC(C)=C(C(=O)OCC(F)(F)F)C1c1cccc([N+](=O)[O-])c1 (centres unmarked) [C, 1,4-dihydro-2,6-dimethyl-5-[(methylsulfamoyl)acetyl]-4-(3-nitrophenyl)nicotinic acid 2,2,2-trifluoroethyl ester]	9.5	–	–	–	–	–	–	–	–	–	100	> 180	-16	180	88	120	+2%	33	180
CC1=C(C(=O)CS(=O)(=O)NC(C)C)C(c2cc([N+](=O)[O-])ccc2Cl)C(C(=O)OC(C)C)=C(C)N1 (centres unmarked) [D, 4-(2-chloro-5-nitrophenyl)-1,4-dihydro-5-[(isopropylsulfamoyl)acetyl]-2,6-dimethylnicotinic acid isopropyl ester]	0.82	> 60	-9	> 120	68	60	-5	75	90	–	100	–	–	–	–	–	–	–	–
CC1=C(C(=O)CS(=O)(=O)NC(C)C)C(c2cc(Cl)ccc2Cl)C(C(=O)OC(C)C)=C(C)N1 (centres unmarked) [E, 4-(2,5-dichlorophenyl)-1,4-dihydro-5-[(isopropylsulfamoyl)acetyl]-2,6-dimethylnicotinic acid isopropyl ester]	6.6	> 120	-16	70	104	120	-14	65	90	–	100	–	–	–	–	–	–	–	–
CCCOCCOC(=O)C1=C(C)NC(C)=C(C(=O)CS(=O)(=O)NC(C)C)C1c1cccc([N+](=O)[O-])c1 (centres unmarked) [F, 1,4-dihydro-5-[(isopropylsulfamoyl)acetyl]-2,6-dimethyl-4-(3-nitrophenyl)nicotinic acid 2-propoxyethyl ester]	0.6	> 60	-11	120	56	16	-5	34	60	–	99	–	–	–	–	–	–	–	–
CC1=C(C(=O)CS(=O)(=O)NC(C)C)[C@H](c2cccc([N+](=O)[O-])c2)C(C(=O)O[C@@H](C)c2ccccc2)=C(C)N1 [G, (S)-1,4-dihydro-5-[(isopropylsulfamoyl)acetyl]-2,6-dimethyl-4-(3-nitrophenyl)nicotinic acid (S)-1-phenylethyl ester]	7.4	> 120	-36	> 120	57	> 120	-13	29	> 120	–	100	–	–	–	–	–	–	–	–
COC(=O)C1=C(C)NC(C)=C(C(=O)OC)C1c1ccccc1[N+](=O)[O-] [nifedipine, reference compound]	–	–	–	–	–	–	–	–	–	–	100	–	–	–	–	–	–	–	–
